This note sets out measurements from patent publication US9249111B2, “Substituted quinoxalines as B-RAF kinase inhibitors” (NEUPHARMA, INC., priority 2011, dated 2016).

For one test, the target named is T1, BRAF (Homo sapiens, UniProt P15056).
T1 construct: purchased Invitrogen
Nature of the test: Z'-LYTE kinase inhibition assay (Invitrogen), BRAF. Particulars: compound at 1 μM; Z'-LYTE method. It counts as biochemical. As for the experimental part: (§1) Inhibitory activities of compounds against BRAF or BRAF V600E were measured by Invitrogen using Z′-LYTE® Method as briefly described in the following.
(§2) 4× Test compounds were dissolved in 1% DMSO. […] ATP solutions were diluted to a 4×ATP working concentration in Kinase Buffer (50 mM HEPES pH 7.5, 0.01% BRIJ-35, 10 mM MgCl2, 1 mM EGTA). Reaction started by 30-second shaking of mixture consisting of 2.5 μL4× test compound, 2.5 μL 2× kinase reaction mixture and 2.5 μL 4×ATP Solution on Bar-coded Corning, low volume NBS, black 384-well plate (Corning Cat. #3676). Then the mixture was incubated for 60-minute at room temperature for the kinase reaction, followed by addition of 5 μL of a 1:1024 dilution of development reagent A and 30-second plate shake. The mixture was then incubated for another 60-minute at room temperature for development reaction. Finally fluorescence was read by plate reader. IC50 was calculated by plotting the concentration of compound vs the percentage of inhibition in treated wells using GraphPad Prism 5.

For the next test, the target named is T2, BRAF V600E (Homo sapiens, UniProt P15056, V600E).
T2 construct: purchased Invitrogen
T2 sequence (P15056 whole entry V600E): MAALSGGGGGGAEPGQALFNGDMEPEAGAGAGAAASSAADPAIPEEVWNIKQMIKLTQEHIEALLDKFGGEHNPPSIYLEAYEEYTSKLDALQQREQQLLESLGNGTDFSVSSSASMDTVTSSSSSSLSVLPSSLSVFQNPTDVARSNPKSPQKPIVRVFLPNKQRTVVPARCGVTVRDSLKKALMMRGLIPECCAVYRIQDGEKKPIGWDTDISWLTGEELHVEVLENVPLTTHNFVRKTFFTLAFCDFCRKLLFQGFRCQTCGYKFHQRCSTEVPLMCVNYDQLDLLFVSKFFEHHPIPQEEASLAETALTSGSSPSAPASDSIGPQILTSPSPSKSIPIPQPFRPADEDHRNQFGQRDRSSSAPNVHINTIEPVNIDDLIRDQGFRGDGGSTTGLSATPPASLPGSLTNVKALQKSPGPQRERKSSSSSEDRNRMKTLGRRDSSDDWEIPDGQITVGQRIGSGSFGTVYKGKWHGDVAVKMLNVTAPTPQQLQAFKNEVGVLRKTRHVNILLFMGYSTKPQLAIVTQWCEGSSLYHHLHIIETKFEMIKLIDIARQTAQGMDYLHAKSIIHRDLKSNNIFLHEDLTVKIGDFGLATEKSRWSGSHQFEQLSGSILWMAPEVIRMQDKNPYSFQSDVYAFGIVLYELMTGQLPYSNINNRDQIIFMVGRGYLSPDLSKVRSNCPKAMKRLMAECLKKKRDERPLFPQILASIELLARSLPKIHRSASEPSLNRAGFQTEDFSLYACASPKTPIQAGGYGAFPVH
Nature of the test: Z'-LYTE kinase inhibition assay (Invitrogen), BRAF V600E. It is filed as biochemical. As to conditions: Z'-LYTE method; for inhibition at 1 µM: compound at 1 μM. As for the experimental part: as §1, §2

For a further test, the system named is A549 cells. Nature of the test: MTT cell growth inhibition assay, A549 cells. It counts as cell-based. Particulars: Homo sapiens, 72 h compound exposure. As for the experimental part:
(§3) Inhibition of cell growth by compounds was measured using MTT assay (Mosmann, T., Journal of Immunological Methods, 1983, 65, 55-63). Tumor cell lines were purchased from ATCC (American Type Culture Collection, Manassas, Va.). All cell lines were maintained in RPMI 1640 (Hyclone) supplemented with 10% fetal bovine serum (FBS, Hyclone), glutamine (2 mM, Hyclone), and antibiotics (penicillin 100 U/mL and streptomycin 50 μg/mL) at 37° C. in a humidified atmosphere of 5% CO2 in air. Taxol (as a positive control, Sigma) and compounds were dissolved in DMSO (Sigma), and the final concentration of DMSO in the medium was 1%. Tumor cells were plated in 96-well plates at densities of about 4000 cells/well of a 96-well plate and allowed to adhere/grow for 24 h. They were then treated with various concentrations of drug for 72 h. 3-(4,5-Dimethylthiazol-2-yl)-2,5-diphenyltetrazolium bromide (MTT, Sigma) was used to determine the number of viable cells at the time of compound addition and the number of cells remaining after 72 h compound exposure. The number of cells remaining after 72 h was compared to the number of viable cells at the time of compound addition by measuring the absorbance at 570 nm, allowing for the calculation of growth inhibition.
(§4) All concentrations of compounds were tested in triplicate and controls were averaged over 4 wells. IC50 was calculated by plotting the concentration of compound vs the percentage of inhibition in treated wells using GraphPad Prism 5. […] The scale utilized in Table 2 is as follows: […], ++ between 1000 and 5000 nM, and + greater than 5000 nM.

In another test the test system is A375 cells. As to the kind of experiment: MTT cell growth inhibition assay, A375 cells. It counts as cell-based. Particulars: Homo sapiens, A-375, 72 h compound exposure. As for the experimental part: as §3, §4

T1 sequence (P15056 whole entry): as the sequence (P15056 whole entry V600E) above, with E600V counted along it

`O=C(c1ccc2nccnc2c1)c1c(F)ccc(OCc2cccc(F)c2)c1F` [Compound C01, (2,6-difluoro-3-((3-fluorobenzyl)oxy)phenyl)(quinoxalin-6-yl)methanone]: the inhibition at 1 µM against BRAF and on BRAF V600E was 30 to 89% in each case. Further, the IC50 in the test on A549 cells and in the test on A375 cells was > 5000 nM throughout.
As to `O=C(c1ccc2nccnc2c1)c1c(F)ccc(OCc2cccc(Cl)c2)c1F` [Compound C02, (3-((3-chlorobenzyl)oxy)-2,6-difluorophenyl)(quinoxalin-6-yl)methanone], the inhibition at 1 µM against BRAF and at BRAF V600E was 30 to 89% throughout. Besides, the IC50 in the test with A549 cells and in the test on A375 cells was > 5000 nM each time.
For `O=C(c1ccc2nccnc2c1)c1c(F)ccc(O)c1F` [Compound C03, (2,6-difluoro-3-hydroxyphenyl)(quinoxalin-6-yl)methanone], the figures for the IC50 with A549 cells and in the test with A375 cells were 1000 to 5000 nM and < 1000 nM, respectively.
As for `COc1ccc(F)c(C(=O)c2ccc3nccnc3c2)c1F` [Compound C04, (2,6-difluoro-3-methoxyphenyl)(quinoxalin-6-yl)methanone], the inhibition at 1 µM at BRAF was < 30%; at BRAF V600E, 30 to 89%. In addition, the IC50 with A549 cells and in the test with A375 cells was 1000 to 5000 nM throughout.
On to `O=C(c1ccc2ncc(Cl)nc2c1)c1c(F)ccc(O)c1F` [Compound C05, (3-chloroquinoxalin-6-yl)(2,6-difluoro-3-hydroxyphenyl)methanone], for which the IC50 was 1000 to 5000 nM with A549 cells and < 1000 nM in the test with A375 cells.
`O=C(c1ccc2nccnc2c1)c1c(F)ccc(OCc2ccccc2)c1F` [Compound C06, (3-(benzyloxy)-2,6-difluorophenyl)(quinoxalin-6-yl)methanone]: the inhibition at 1 µM at BRAF is 30 to 89%; against BRAF V600E, > 89%. Besides, the figures for the IC50 on BRAF V600E (read-out: IC50 against BRAF V600E), with A549 cells and with A375 cells were < 50 nM, < 1000 nM and < 1000 nM, respectively.
On to `O=C(c1ccc2ncc(-c3cccnc3)nc2c1)c1c(F)ccc(O)c1F` [Compound C07, (2,6-difluoro-3-hydroxyphenyl)(3-(pyridin-3-yl)quinoxalin-6-yl)methanone], for which the 50% inhibitory concentration (IC50) in the test with A549 cells and in the test on A375 cells was 1000 to 5000 nM throughout.
In the case of `O=C(c1ccc2ncc(-c3ccccc3)nc2c1)c1c(F)ccc(O)c1F` [Compound C08, (2,6-difluoro-3-hydroxyphenyl)(3-phenylquinoxalin-6-yl)methanone], the values for the IC50 with A549 cells and in the test with A375 cells were 1000 to 5000 nM and < 1000 nM, respectively.
`N#Cc1cnc2ccc(C(=O)c3c(F)ccc(O)c3F)cc2n1` [Compound C09, 7-(2,6-difluoro-3-hydroxybenzoyl)quinoxaline-2-carbonitrile]: the half-maximal inhibitory concentration (IC50) with A549 cells and in the test on A375 cells was 1000 to 5000 nM throughout.
For the molecule `COc1cnc2ccc(C(=O)c3c(F)ccc(O)c3F)cc2n1` [Compound C10, (2,6-difluoro-3-hydroxyphenyl)(3-methoxyquinoxalin-6-yl)methanone], the IC50 in the test with A549 cells and in the test with A375 cells was 1000 to 5000 nM in each case.

One may read the inhibition as the share of the control response that was lost under treatment. A higher inhibition goes with a response far below the control. As a reminder, the IC50 is the concentration at which inhibition is half-maximal.
